# Measurements from patent EP0913483A2, “Method and reagent for the determination of creatine kinase” (Roche Diagnostics GmbH, priority 1997, dated 1999).
# System: Glucose-6-phosphat-Dehydrogenase
# Experiment: Conversion of different hexoses by glucose-6-phosphate dehydrogenase in the presence of NADP+ (photometric)
# Format: biochemical
# Settings: Hexose 50 mmol/l, G6P-DH 10 U/ml, NADP+ added, 37 °C, 340 nm, ca. 40 min, Imidazol·HCl pH 6,6
# Method: Beispiel 1: Umsetzung verschiedener Hexosen mit Glucose-6-phosphat-Dehydrogenase in Gegenwart von NADP^+
# Testansatz: Es wurden in einer Küvette mit einer Schichtdicke von 1 cm jeweils 1,0 ml Reagenz A mit 0,1 ml Reagenz B vermischt und mit einem Spektralphotometer bei 37 °C und 340 nm der Extinktionsverlauf über ca. 40 min verfolgt.
row,Compound,NADPH-Bildung (Extinktionsverlauf)
1,O=C(CO)[C@@H](O)[C@H](O)[C@H](O)CO [Fructose],keine Extinktionsveränderung meßbar
2,Glucose [reference compound],signifikante NADPH-Bildung
3,Mannose,keine Extinktionsveränderung meßbar
